Test results reported in PubChem BioAssay AID1845206 (Molecular Pharmacology Branch, DTP, NCI, 2023).
Calls of active or inactive are those of the source. Rule for the calls: active = viability on the fitted dose curve at most 10% of control; inactive = the rest.

System: NCI-H1618 multicellular tumor spheroid viability
Assay: Anticancer human tumor NCI-H1618 cell line growth inhibition;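 note: spheroids exposed to agents for 7 days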
Details: for IC50: curve of first compound; for viability, T/C: stronger effect = lower value
In short: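 Complex spheroids of malignant cells with endothelial cells and mesenchymal stem cells; agents alone or combined, from near clinical Cmax (or 10 microM if unknown) down in half-log steps, 0.25% DMSO final.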

`CC(C)n1c(=O)n(C)c2cnc3cc(F)c(-c4ccc(OCCCN5CCCCC5)nc4)cc3c21` + Cn1nnc2c(C(N)=O)ncn2c1=O was tested. Which IC50 (second compound 1 µM) did it give?
The IC50 was over 10000 nM.

What about the IC50 (second compound 3.16 µM) of the same compound?
Its IC50 is under 31.6 nM.

What about the IC50 (second compound 10 µM) of the same compound?
Its IC50 is under 31.6 nM.

What about the IC50 (second compound 31.6 µM) of the same compound?
Its IC50 is under 31.6 nM.

What about the IC50 (second compound 100 µM) of the same compound?
Its IC50 is 4440 nM.

What about the viability, T/C (second compound 1 µM, first compound 0.0316 µM) of the same compound?
The viability, T/C was 82.9%.

And the outcome (second compound 1 µM, first compound 0.1 µM)?
The outcome was “inactive”.

What about the outcome (second compound 1 µM, first compound 0.316 µM) of the same compound?
Its outcome is “inactive”.

What about the viability, T/C (second compound 1 µM, first compound 1 µM) of the same compound?
The viability, T/C was 86.7%.

What about the viability, T/C (second compound 1 µM, first compound 3.16 µM) of the same compound?
The viability, T/C was 78.4%.

What about the viability, T/C (second compound 1 µM, first compound 10 µM) of the same compound?
Its viability, T/C is 69%.

And the viability, T/C (second compound 3.16 µM, first compound 0.0316 µM)?
Its viability, T/C is 20.5%.

What about the viability, T/C (second compound 3.16 µM, first compound 0.1 µM) of the same compound?
The viability, T/C was 16.2%.

What about the viability, T/C (second compound 3.16 µM, first compound 0.316 µM) of the same compound?
The viability, T/C was 25.4%.

What about the viability, T/C (second compound 3.16 µM, first compound 1 µM) of the same compound?
Its viability, T/C is 22.2%.

And the viability, T/C (second compound 3.16 µM, first compound 3.16 µM)?
Its viability, T/C is 8.21%.

And the viability, T/C (second compound 3.16 µM, first compound 10 µM)?
The viability, T/C was 14.4%.

What about the viability, T/C (second compound 10 µM, first compound 0.0316 µM) of the same compound?
Its viability, T/C is 12.6%.

What about the viability, T/C (second compound 10 µM, first compound 0.1 µM) of the same compound?
The viability, T/C was 2.97%.

What about the viability, T/C (second compound 10 µM, first compound 0.316 µM) of the same compound?
The viability, T/C was 8.79%.

What about the viability, T/C (second compound 10 µM, first compound 1 µM) of the same compound?
Its viability, T/C is 11.4%.

And the viability, T/C (second compound 10 µM, first compound 3.16 µM)?
The viability, T/C was 19.9%.

And the viability, T/C (second compound 10 µM, first compound 10 µM)?
Its viability, T/C is 5.34%.

What about the viability, T/C (second compound 31.6 µM, first compound 0.0316 µM) of the same compound?
Its viability, T/C is 9.31%.

What about the viability, T/C (second compound 31.6 µM, first compound 0.1 µM) of the same compound?
The viability, T/C was 17.1%.

And the viability, T/C (second compound 31.6 µM, first compound 0.316 µM)?
Its viability, T/C is 12.9%.

What about the viability, T/C (second compound 31.6 µM, first compound 1 µM) of the same compound?
Its viability, T/C is 11.6%.

And the viability, T/C (second compound 31.6 µM, first compound 3.16 µM)?
Its viability, T/C is 23%.

What about the viability, T/C (second compound 31.6 µM, first compound 10 µM) of the same compound?
Its viability, T/C is 6.81%.

And the viability, T/C (second compound 100 µM, first compound 0.0316 µM)?
The viability, T/C was 57.3%.

What about the viability, T/C (second compound 100 µM, first compound 0.1 µM) of the same compound?
The viability, T/C was 68.8%.

What about the viability, T/C (second compound 100 µM, first compound 0.316 µM) of the same compound?
The viability, T/C was 52%.

And the viability, T/C (second compound 100 µM, first compound 1 µM)?
Its viability, T/C is 67.2%.

And the viability, T/C (second compound 100 µM, first compound 3.16 µM)?
The viability, T/C was 57.6%.

And the viability, T/C (second compound 100 µM, first compound 10 µM)?
The viability, T/C was 29.9%.
